Consider 39 molecules from patent publication US10765751B2, “pH sensitive carrier and preparation method thereof, and pH sensitive drug and pH sensitive drug composition each containing the carrier, and method for treating or preventing diseases using the same” (TERUMO KABUSHIKI KAISHA, priority 2012, dated 2020).

Assay [1] in a line: Leaching test: measurement of a leakage (leaching rate). Particulars: hydrophobic material alone, 37° C., 90 min, mean of three ± SD. It counts as biochemical. The procedure: The leakage (leaching rate) was determined according to the method described by K. Kono et al., Bioconjugate Chem., 2008 19 1040-1048 and evaluated using an EYPC liposome including Pyranine serving as a fluorescent substance and DPX serving as a quencher.
3000 nmol of EYPC dissolved in chloroform was measured and placed in a 10 mL eggplant flask and converted to a thin film by use of a rotary evaporator (BuCHI). 500 μL of a Pyranine solution (Pyranine: 35 mM, DPX: 50 mM, MES: 25 mM, pH 7.4) was added, followed by dispersion with use of an ultrasonic irradiator (USC-J) and passage through a polycarbonate film having a pore size of 100 nm by use of an extruder to obtain a uniform particle size. Using an MES buffer (MES: 25 mM, NaCl: 125 mM, pH 7.4) and a G100 column, an outer water layer was substituted to obtain a dispersion of EYPC liposomes including the fluorescent substance. The concentration of the choline group of the phospholipid was determined by use of the phospholipid C test Wako and was adjusted by use of an MES buffer (MES: 25 mM, NaCl: 125 mM, pH 7.4) in such a way as to obtain 1.0 mmol/L of the phospholipid. […] The DOPE-Chems and DOPE-oleic acid were, respectively, measured in an acetic acid buffer (acetic acid: 25 mM, NaCl: 125 mM).
With respect to other samples, measurement at a pH of 4.0 to 3.0 was carried out by use of an acetic acid buffer.
It will be noted that the leakage was calculated in such a way that in case where the EYPC liposome dispersion alone was used, it was taken as 0% and a value obtained in case where 30 μL of a 10-fold diluted Triton-X100 was added was taken as 100%.
More particularly, the leakage was calculated according to the following equation. In the following equation, a measured fluorescence intensity is represented by L, a fluorescence intensity of a dispersion alone of EYPC liposomes including a fluorescent substance is represented by L0, and a fluorescence intensity in case where Triton-X100 was added is represented by L100. Leakage (%)=(L−L0)/(L100−L0)×100 Fusion Test: Measurement of Fusion (Membrane Fusion)

In assay [2] the test system is RAW cells. As to the kind of experiment: Evaluation of cytosolic delivery using a fluorescence-labeled peptide. It counts as cell-based. Particulars: 14 μg of the fluorescence-labeled peptide/well, overnight, three hours post-incubation; FIG. 19, 20. The procedure: OVA-257-264-Rh was chosen as a model peptide. 140 μg/ml of a fluorescence-labeled peptide solution was prepared by use of PBS passed through a 0.22 μm filter and used for the preparation of a carrier. Cells used were RAW cells, and culture was carried out by use of an incubator (MCO20AIC) set at 5% CO2 and 37° C. The RAW cells were spread on a matsunami glass bottom dish on the day before the charge of the carrier and cultured in a 10% FBS-containing MEM medium.
After rinsing the cells with PBS, the medium was substituted with 1900 μL of a fresh 10% FBS-containing MEM medium, into which 100 μL of the respective samples was charged. Incubation was continued over 16 to 20 hours and the cells were rinsed at least three times with PBS. Thereafter, 2 mL of a fresh 10% FBS-containing MEM medium was added, following by three hours post-incubation. The cells were rinsed with PBS, followed by substitution with a DMEM-without-Phenol-Red medium and observation of the cells through a fluorescence microscope Axiovert 200M—soft: Axio vision 3.0—light source: Fluo Arc

Regarding `O=C(OCc1ccccc1)c1ccccc1` [Benzyl benzoate], the “Hydrophobic material only Leakage (%)” value is given as 9.7 ± 0.5% in assay [1] (pH 5.0) and 7.3 ± 2.0% in assay [1] (pH 7.4).
The like results for `CCCOC(=O)c1ccc(O)cc1` [Propyl paraoxybenzoate, propyl paraoxybenzoate] were, in that order, 7.9 ± 0.1% and 5.4 ± 0.2%.
The matching figures for `CCCCCCCCCCCC(=O)O` [Lauric acid]: 14.2 ± 0.4% and 6.2 ± 0.4%.
The like results for `CC(C)CCCC(C)CCCC(C)CCCCC(C)CCCC(C)CCCC(C)C` (centres unmarked) [Squalane, squalane] were, in that order, 9.4 ± 0.5% and 7.8 ± 0.6%.
With `Cc1c(C)c2c(c(C)c1O)CCC(C)(CCCC(C)CCCC(C)CCCC(C)C)O2` (racemic) [α-Tocopherol, DL-α-tocopherol], the “Hydrophobic material only Leakage (%)” value in assay [1] (pH 5.0) was found to be 8.8 ± 0.6%; in assay [1] (pH 7.4), 5.4 ± 0.2%.
The matching figures for `CCCCCCCCCCCCCCCCCCCCO` [1-Eicosanol]: 8.6 ± 0.5% and 7.6 ± 0.4%.
The like results for `CCCCCCCCCCCC(=O)OCC` [Ethyl laurate] were, in that order, 11.9 ± 1.2% and 8.7 ± 0.9%.
The like results for sorbitan palmitic acid ester [SPAN 40] were, in that order, 20.8 ± 1.4% and 14.9 ± 0.8%.
Regarding `CCCCCCCC/C=C\CCCCCCCC(=O)OCC(CO)OC(=O)CCCCCCC/C=C\CCCCCCCC` (centres unmarked) [Glycerol dioleate], the figures for the “Hydrophobic material only Leakage (%)” value in assay [1] (pH 5.0) and in assay [1] (pH 7.4) were 7.4 ± 0.6% and 7.2 ± 0.5%, respectively.
In the case of `CCCCCCCCCCCCCCCCCC(=O)OCC(O)CO` (centres unmarked) [Monostearin, Glycerol monostearate], the results for the “Hydrophobic material only Leakage (%)” value in assay [1] (pH 5.0) and in assay [1] (pH 7.4) were 9.6 ± 0.6% and 7.9 ± 1.0%, respectively.
The like results for sorbitan monolaurate [SPAN 20] were, in that order, 10.1 ± 0.4% and 5.7 ± 0.7%.
The like results for `CCCCCCCC/C=C\CCCCCCCC(=O)[O-].[Na+]` [Oleic acid, Sodium oleate] were, in that order, 76.0 ± 2.3% and 2.2 ± 0.1%.
The like results for `CCCCCC(=O)OCC(COC(=O)CCCCC)OC(=O)CCCCC` [Tricaproin, tricaproin] were, in that order, 8.4 ± 0.9% and 6.9 ± 0.9%.
As to `CC(C)CCC[C@@H](C)[C@H]1CC[C@H]2[C@@H]3CC=C4C[C@@H](O)CC[C@]4(C)[C@H]3CC[C@]12C` [Cholesterol, cholesterol], the “Hydrophobic material only Leakage (%)” value in assay [1] (pH 5.0) is on record as 7.6 ± 0.5%; in assay [1] (pH 7.4), 4.8 ± 0.1%.
The matching figures for `CCCCO` [1-Butanol]: 11.1 ± 0.5% and 8.8 ± 0.1%.
For `CC(=O)Oc1c(C)c(C)c2c(c1C)CCC(C)(CCC[C@H](C)CCC[C@H](C)CCCC(C)C)O2` (mixture of isomers) [α-Tocopherol acetate, DL-α-tocopherol acetate], the “Hydrophobic material only Leakage (%)” value in assay [1] (pH 5.0) worked out at 7.0 ± 2.1%; in assay [1] (pH 7.4), 5.9 ± 0.2%.
Turning to `CCCCCCCCCCCC(=O)OCC(O)CO` (centres unmarked) [Monolaurin, Glycerol monolaurate], the “Hydrophobic material only Leakage (%)” value is given as 5.6 ± 0.4% in assay [1] (pH 5.0) and 3.6 ± 0.3% in assay [1] (pH 7.4).
The matching figures for sorbitan stearic acid ester [SPAN 60]: 17.5 ± 0.4% and 7.9 ± 0.3%.
Regarding `CCCCCCCCO` [1-Octanol], the “Hydrophobic material only Leakage (%)” value in assay [1] (pH 5.0) worked out at 11.7 ± 0.1%; in assay [1] (pH 7.4), 9.0 ± 0.3%.
The like results for Cyclodextrin were, in that order, 9.0 ± 0.7% and 6.3 ± 0.6%.
In the case of sorbitan trioleic acid ester [SPAN 85], the “Hydrophobic material only Leakage (%)” value in assay [1] (pH 5.0) was 17.7 ± 1.2%; in assay [1] (pH 7.4), 5.2 ± 0.4%.
The like results for `N[C@@H](Cc1c[nH]cn1)C(=O)O` [L-Histidine, L-histidine] were, in that order, 8.9 ± 0.5% and 6.7 ± 0.4%.
The like results for sorbitan monooleate [SPAN 80] were, in that order, 10.0 ± 0.7% and 5.1 ± 0.5%.
The matching figures for `CC(C)=CCC/C(C)=C/CC/C(C)=C/CC/C=C(\C)CC/C=C(\C)CCC=C(C)C` [Squalene]: 9.0 ± 0.5% and 5.4 ± 0.4%.
In the case of `CCCCCCCCCCCCCCCCCC(=O)OCC(CO)OC(=O)CCCCCCCCCCCCCCCCC` (centres unmarked) [Glycerol distearate], the “Hydrophobic material only Leakage (%)” value in assay [1] (pH 5.0) was 11.0 ± 1.4%; in assay [1] (pH 7.4), 8.0 ± 0.2%.
The like results for `N[C@@H](Cc1ccccc1)C(=O)O` [L-Phenylalanine] were, in that order, 10.7 ± 0.4% and 7.9 ± 0.5%.
The like results for `OC[C@H]1O[C@@H](O[C@H]2[C@H](O)[C@@H](O)C(O)O[C@@H]2CO)[C@H](O)[C@@H](O)[C@H]1O` (some centres unmarked) [Lactose] were, in that order, 8.9 ± 0.2% and 6.1 ± 0.2%.
As to `CCCCCCCCCCCCCC(=O)OCC(O)CO` (centres unmarked) [Monomyristin, Glycerol monomyristate], the entries for the “Hydrophobic material only Leakage (%)” value in assay [1] (pH 5.0) and in assay [1] (pH 7.4) were 5.4 ± 0.1% and 3.8 ± 0.3%, respectively.
The matching figures for `CCCCCCCC(=O)OCC(COC(=O)CCCCCCC)OC(=O)CCCCCCC` [Tricaprylin, tricaprylin]: 9.0 ± 1.1% and 6.8 ± 0.9%.
The like results for `CCCCCCCCCCCCCCCC(=O)OC[C@H](O)[C@H]1OC(=O)C(O)=C1O` [Ascorbyl palmitate] were, in that order, 9.9 ± 1.0% and 1.7 ± 0.1%.
In the case of sorbitan tristearate [SPAN 65], the “Hydrophobic material only Leakage (%)” value in assay [1] (pH 5.0) amounted to 13.0 ± 0.3%; in assay [1] (pH 7.4), 4.2 ± 0.4%.
The matching figures for `CCCCCCCC/C=C\CCCCCCCC(=O)OCC(O)CO` (centres unmarked) [Monoolein, Glycerol monooleate]: 8.3 ± 0.4% and 6.3 ± 0.4%.
On to “fluorescence-labeled peptide alone: Fluorescence-labeled peptide: OVA257-264-Rh”, for which the “localisation of fluorescence-labeled peptide in cells (cytosolic delivery)” value in assay [2] is recorded as “remained in the endosome”.
On to `CCCCCCCCCC(=O)OCC(O)CO` (centres unmarked) [Monocaprin, Glycerol monocaprate], for which the figures for the “Hydrophobic material only Leakage (%)” value in assay [1] (pH 5.0) and in assay [1] (pH 7.4) were 8.1 ± 0.2% and 4.0 ± 2.6%, respectively.
The like results for `CCCCCCCCCCCCCCCC(=O)OCC(O)CO` (centres unmarked) [Monopalmitin, Glycerol monopalmitate] were, in that order, 8.1 ± 0.7% and 7.8 ± 2.5%.
`CCCCCCCC/C=C\CCCCCCCC(=O)OCC` [Ethyl oleate]: the “Hydrophobic material only Leakage (%)” value in assay [1] (pH 5.0) is recorded as 11.2 ± 1.3%; in assay [1] (pH 7.4) it was 7.9 ± 0.2%.
The like results for `CCCCCCCC(=O)OCC(O)CO` (centres unmarked) [Monocaprylin, Glycerol monocaprylate] were, in that order, 8.5 ± 0.4% and 4.9 ± 1.8%.
The like results for `CCCCCCCCCCCCO` [1-Dodecanol] were, in that order, 9.1 ± 0.8% and 7.9 ± 0.2%.
The like results for `CCCCCCCCCCCCCCCCO` [1-Hexadodecanol, 1-Hexadecanol] were, in that order, 11.0 ± 0.5% and 9.0 ± 0.9%.
